One test relates to A549. Nature of the test: Cytotoxicity against human A549 lung tumor cells. Type of test: functional, cell-based.
For another test, the system named is HT-29. The test is described as follows: Cytotoxicity against human HT29 colon tumor cells. Type of test: functional, cell-based.

In brackets after ≈: the same amount, converted by molar mass.

The IC50 is the point on the concentration scale where inhibition reaches its midpoint. Higher therefore signals a need for much substance.

Take `CC(C)[C@]12O[C@H]1[C@@H]1O[C@]13[C@]1(O[C@H]1C[C@H]1C4=C(CC[C@@]13C)C(=O)OC4)[C@H]2OC(=S)n1ccnc1`: the IC50 in the test on A549 was 5 µg/mL (≈ 10.6 µM); with HT-29, 0.88 µg/mL (≈ 1.87 µM).
Taken in the same sequence, the figures for `CC(C)[C@]12O[C@H]1[C@]13O[C@H]1C[C@H]1C4=C(CC[C@]1(C)[C@@]31O[C@H]1C2=O)C(=O)OC4` were 0.85 µg/mL (≈ 2.37 µM) and 0.7 µg/mL (≈ 1.95 µM).
In the same order, the values of `CC(C)C1=C[C@]23O[C@H]2C[C@H]2C4=C(CC[C@]2(C)[C@@]32O[C@H]2C1=O)C(=O)OC4` are 1.2 µg/mL (≈ 3.5 µM) and 0.67 µg/mL (≈ 1.96 µM).
For the compound `CC(C)[C@]12O[C@H]1[C@]13O[C@H]1C[C@H]1C4=C(CC[C@]1(C)[C@@]31O[C@H]1[C@@H]2O)C(=O)OC4`, the values for the IC50 with A549 and in the test on HT-29 were 0.27 µg/mL (≈ 0.749 µM) and 0.15 µg/mL (≈ 0.416 µM), respectively.
On to `CC(C)[C@]12O[C@H]1[C@]13O[C@H]1C[C@H]1C4=C(CC[C@]1(C)[C@@]31O[C@H]1[C@H]2O)C(=O)OC4`, for which the IC50 with A549 and in the test with HT-29 was > 10 µg/mL in each case.
Consider `CC(C)[C@]12O[C@H]1[C@@H]1O[C@]13[C@]1(O[C@H]1C[C@H]1C4=C(CC[C@@]13C)C(=O)OC4)[C@@H]2OC(=S)n1ccnc1`, for which the figures for the IC50 with A549 and in the test with HT-29 were 0.024 µg/mL (≈ 0.051 µM) and 0.004 µg/mL (≈ 0.0085 µM), respectively.
With `CC(C)[C@]12O[C@H]1[C@@H]1O[C@@]13[C@@]1(C)CCC4=C(COC4=O)[C@@H]1C[C@@H]1O[C@@]13C2=O` [TRIPTONIDE], the IC50 with HT-29 was < 0.00046 µg/mL.

(Values after ChEMBL document CHEMBL1146928, “Semisynthesis of C-ring modified triptolide analogues and their cytotoxic activities” (Bioorg Med Chem Lett, 2006).)
